We go through three compounds from patent US12145933B2, “Hemi (L)-tartrate forms of 3-({5-chloro-1-[3-(methylsulfonyl)propyl]-1H-indol-2-yl}methyl)-1-(2,2,2-trifluoroethy)-1,3-dihydro-2H-imidazo[4,5-C]pyridin-2-one and pharmaceutical compositions comprising the same” (Janssen Sciences Ireland Unlimited Company, priority 2020, dated 2024).

What all share (assay type): physicochemical
Data set [1] in a line: Long term storage of liquid aqueous suspension (disproportionation, polymorph conversion). As for the experimental part: A liquid aqueous suspension comprising Form 1 of the hemi (L)-tartrate form of rilematovir as described in Examples 10, 11, 14 or 15 was stored in a sealed glass vial at a temperature of 30° C., 40° C., and 50° C. Over a period of 8 months samples were taken and analysed (e.g. by XPRD or solid state ^19F-NMR spectroscopy).
FIG. 6 is the solid state ^19F-NMR spectrum of Form 1 having peaks at −70.004 ppm and −73.248 ppm. FIG. 7 is the solid state ^19F-NMR spectrum of Form 3 having a peak at −70.122 ppm.

The nature of data set [2]: Intrinsic dissolution rate (IDR), μDISS Profiler. To be noted: for IDR: 37.0 ± 0.5° C., 100 rpm. As for the experimental part: The intrinsic dissolution rate (IDR) describes how fast a compound is released from its solid-state form into solution. The intrinsic dissolution rate is defined as the rate of dissolution of a pure active pharmaceutical ingredient when surface area, stirring speed, pH and ionic-strength of the dissolution medium are kept constant. Thus, it is measured as the release of API from a flat and well-defined surface area into an aqueous solution at a given pH value. By exposing the surface area of a material to an appropriate dissolution medium while maintaining constant temperature, stirring rate, and pH, the intrinsic dissolution rate can be determined. Typically the intrinsic dissolution is expressed in terms of mg per minute per cm^2.
Intrinsic Dissolution Method Parameters:
Pellet Compression Parameters

A short description of data set [3]: Equilibrium (thermodynamic) solubility in fed state human intestinal fluids. As to conditions: for solubility Conc / solubility at 24 h: Fed HR pool human intestinal fluids, 37° C., 24 hours; for solubility at 24 h: human, 37 °C, plasma or biological fluid, thermodynamic from solid. As to the method: Determination of the equilibrium solubility of rilematovir in its free base form and its hemi (L)-tartrate form in fed state human intestinal fluids.
The thermodynamic solubility of rilematovir and the hemi (L)-tartrate form of rilematovir was determined using human intestinal fluids obtained from human volunteers in fed state. The pools of human intestinal fluids were prepared from individual intestinal aspirates collected among healthy volunteers under fed state conditions. Fed HR (high responders) pools were build up from duodenal samples in the fed state from volunteers with a clear postprandial bile salt increase.
A small magnetic stirrer bar (about 5 mm in length) and 300 μl of the respective human intestinal fluids at 37° C. were added to the Eppendorf tubes containing an excess of test compound. The mixtures were vortexed for a few seconds and placed on a magnetic stirrer plate (100 rpm) at 37° C.
After 24 hours, the Eppendorf tubes were centrifuged for 5 minutes at 12000 rpm (to separate dissolved from non-dissolved material). 10 µl of the supernatant was diluted into 100 μl methanol), well mixed and centrifuged for 1 minute to separate precipitated protein fraction. The test compound was quantified in the resulting supernatant using UPLC-UV quantification.
The pH was measured at the end of the experiment for each condition (pHend in Table 1).

Data set [4] in a line: Kinetic solubility in biorelevant media (FaSSIF, FeSSIF) with and without HPMC E5. To be noted: for solubility kinetic at 30 min / solubility kinetic at 60 min / solubility kinetic at 120 min: thermodynamic from solid, as μg rilematovir/mL; for solubility kinetic at 30 min: read-out: kinetic solubility, concentration at 30 minutes; for solubility kinetic at 60 min: read-out: kinetic solubility, concentration at 60 minutes; for solubility kinetic at 120 min: read-out: kinetic solubility, concentration at 120 minutes. As for the experimental part:
The kinetic solubility of rilematovir and the hemi (L)-tartrate form of rilematovir in different biorelevant medium (FaSSIF and FeSSIF) in the presence or absence of HPMC E5 was analysed.
An excess amount of rilematovir or the hemi (L)-tartrate form of rilematovir was added to biorelevant medium (approximately 5 mg solid/mL medium was used).
The media were stirred at 150 rpm at a temperature of 37° C. Time-dependent measurements were performed by removing 10 mL aliquots after 30 minutes, 1 hour and 2 hours. Undissolved solid material in the aliquot was removed using a Whatman SPARTAN RC syringe filter (diameter: 30 mm; pore size: 0.2 μm). Afterwards, a suitable dilution was made in NMP/water 30/70; v/v to avoid precipitation. The concentration of rilematovir, or the hemi (L)-tartrate form of rilematovir, in solution was determined using UPLC-UV.

The mark [5] stands for this setting: aqueous with cosolvent or surfactant or cyclodextrin, FaSSIF pH 6.5, HPMC E5 1.39 mg/mL, 37° C.
Setting [6] is: aqueous with cosolvent or surfactant or cyclodextrin, FeSSIF pH 5.0, HPMC E5 1.39 mg/mL, 37° C.
The mark [7] stands for this setting: FaSSIF pH 6.5, no HPMC E5, 37° C.
Where [8] appears, read: FeSSIF pH 5.0, no HPMC E5, 37° C.
The mark [9] stands for this setting: FaSSIF with HPMC E5, aqueous with cosolvent or surfactant or cyclodextrin, FaSSIF pH 6.5, HPMC E5 1.39 mg/mL, 37° C.
Where [10] appears, read: FeSSIF with HPMC E5, aqueous with cosolvent or surfactant or cyclodextrin, FeSSIF pH 5.0, HPMC E5 1.39 mg/mL, 37° C.

In brackets after ≈: the same amount, converted by molar mass. Several values for one entry are separate records, joined by “and”; a condition that tells them apart may be missing. Identical values can stand only once. Entries after “also recorded” stand apart in the source; their conditions may differ. Like-named read-outs stand apart in the source and are kept apart here. A value given as a limit tells only on which side of the number the result lay.

Regarding `CS(=O)(=O)CCCn1c(Cn2c(=O)n(CC(F)(F)F)c3ccncc32)cc2cc(Cl)ccc21.O=C(O)C(O)C(O)C(=O)O` [hemi (L)-tartrate form of rilematovir], the “disproportionation in liquid aqueous suspension” value in data set [1] (sealed glass vial, 30° C., 40° C., 50° C., 8 months, XRPD or solid state 19F-NMR) is given as “does not disproportionate; also recorded: no disproportionation has been observed”. The “polymorph conversion in liquid aqueous suspension” value in data set [1] (storage of aqueous suspension over time, XRPD and solid state 19F-NMR) is on record as “over time Form 1 converts into Form 3”. Besides, the IDR in data set [2] (Medium: 0.01N HCl) was determined as 147 μg/min/cm^2; in data set [2] (Medium: Blank FaSSIF), 5.45 μg/min/cm^2; in data set [2] (Medium: FASSIF), 2.10 μg/min/cm^2. For the same compound, the “intrinsic dissolution rate (IDR) compared with free base form” value in data set [2] (three biorelevant media) is given as “higher than the free base form of rilematovir”. Also, the “solubility Conc” value in data set [3] (single determinations, listed as hemi tartrate form) is 122.93 µg/mL and 126.92 µg/mL. For the same compound, the “solubility in fed state human intestinal fluids relative to free base form” value in data set [3] (fed state human intestinal fluids) is given as “more than three times higher”. For the same compound, the solubility at 24 h was 117 µg/mL in data set [3] (average of three, read-out: solubility Average) and 102 µg/mL in data set [3] (single determinations, read-out: solubility Conc). Further, the solubility kinetic at 30 min in data set [4] (setting [5]) was determined as 108 µg/mL; in data set [4] (setting [6]) it was 1010 µg/mL; in data set [4] (setting [7]), 4.4 µg/mL; in data set [4] (setting [8]), 82.8 µg/mL. In addition, the solubility kinetic at 60 min came out at 93.1 µg/mL in data set [4] (setting [5]), 853 µg/mL in data set [4] (setting [6]), 3.4 µg/mL in data set [4] (setting [7]) and 67.1 µg/mL in data set [4] (setting [8]). For the same compound, the solubility kinetic at 120 min in data set [4] (setting [5]) came to 75.9 µg/mL; in data set [4] (setting [6]) it was 689 µg/mL; in data set [4] (setting [7]), 3 µg/mL; in data set [4] (setting [8]), 58.6 µg/mL. The “kinetic solubility relative to free base” value in data set [4] (biorelevant media, absence of the suspending agent HPMC) is “three (in FaSSIF) to six (in FeSSIF) times higher”.

For the compound `CS(=O)(=O)CCCn1c(Cn2c(=O)n(CC(F)(F)F)c3ccncc32)cc2cc(Cl)ccc21.CS(=O)(=O)CCCn1c(Cn2c(=O)n(CC(F)(F)F)c3ccncc32)cc2cc(Cl)ccc21.O=C(O)C(=O)O` [hemi oxalic co-crystal], the results for the IDR in data set [2] (Medium: 0.01N HCl), in data set [2] (Medium: Blank FaSSIF) and in data set [2] (Medium: FASSIF) were 32.77 μg/min/cm^2, 1.62 μg/min/cm^2 and 1.18 μg/min/cm^2, respectively.

For the compound `CS(=O)(=O)CCCn1c(Cn2c(=O)n(CC(F)(F)F)c3ccncc32)cc2cc(Cl)ccc21` [rilematovir, 3-({5-chloro-1-[3-(methylsulfonyl)propyl]-1H-indol-2-yl}methyl)-1-(2,2,2-trifluoroethyl)-1,3-dihydro-2H-imidazo[4,5-c]pyridin-2-one], the IDR in data set [2] (Medium: 0.01N HCl) is on record as 8.98 μg/min/cm^2; in data set [2] (Medium: Blank FaSSIF), 3.06 μg/min/cm^2; in data set [2] (Medium: FASSIF), under 1 μg/min/cm^2. The “solubility Conc” value in data set [3] (single determinations, listed as free base) was 36.80 µg/mL and 32.50 µg/mL. The solubility at 24 h in data set [3] (fed state human intestinal fluids (Fed HR pool), average of three, read-out: solubility Average) was determined as 34.4 µg/mL (≈ 68.7 µM); in data set [3] (fed state human intestinal fluids (Fed HR pool), single determinations, read-out: solubility Conc) it was 34 µg/mL (≈ 67.8 µM). In addition, the solubility kinetic at 30 min turned out to be 1.2 µg/mL (≈ 2.4 µM) in data set [4] (setting [9]), 12.3 µg/mL (≈ 24.6 µM) in data set [4] (setting [10]), 1.1 µg/mL (≈ 2.2 µM) in data set [4] (setting [7]) and 12.5 µg/mL (≈ 25 µM) in data set [4] (setting [8]). The solubility kinetic at 60 min in data set [4] (setting [9]) was found to be 1.3 µg/mL (≈ 2.6 µM); in data set [4] (setting [10]), 13.4 µg/mL (≈ 26.8 µM); in data set [4] (setting [7]), 1.1 µg/mL (≈ 2.2 µM); in data set [4] (setting [8]), 13.2 µg/mL (≈ 26.4 µM). Moreover, the solubility kinetic at 120 min in data set [4] (setting [9]) came out at 1.5 µg/mL (≈ 2.99 µM); in data set [4] (setting [10]) it was 13.9 µg/mL (≈ 27.7 µM); in data set [4] (setting [7]), 1.2 µg/mL (≈ 2.4 µM); in data set [4] (setting [8]) it was 13.7 µg/mL (≈ 27.3 µM).

Usually solubility stands for the concentration that dissolves in the medium under given conditions.
